The source of these data is patent US20240109877A1, “PYRIMIDINES FOR DEGRADING BRUTON'S TYROSINE KINASE” (AbbVie Inc., priority 2022, published 2024).

Test [1] has as its target Human BTK enzyme, wild-type (Homo sapiens (Human), UniProt Q06187). The test can be described thus: BTK Screening: Btk kinase activity, electrophoretic mobility shift assay (MSA). Type of test: biochemical. The settings on record: 0.5 nM BTK enzyme, 50 μM ATP, 15 minutes pre-incubation, 3 hours at 25° C. On the procedure:
Btk kinase activity was measured in vitro using an electrophoretic mobility shift assay (MSA). The ability of Btk to phosphorylate a fluorescent peptide substrate (FAM-GEEPLYWSFPAKKK-NH2) was measured. The kinase reactions were assembled in a total volume of 25 μL per well in 384 well plates. The following was added to each well: compound buffer (or control); enzyme buffer; and substrate buffer, as further described below.
Specifically the following was added: (1) compound buffer or control: 5μL of 5× compound buffer [(5× compound buffer comprised of: 1× Master Buffer, X μM test compound in 5% dimethyl sulfoxide; (2× Master Buffer comprised of 200 mM HEPES, pH7.5, 0.2% BSA, and 0.02% Triton X-100)]; and (2) enzyme buffer: 10 μL of 2.5× enzyme buffer (1× Master Buffer, 12.5 mM MgCl2, 2.5 mM DTT, 25 μM sodium orthovanadate, 25 μM beta-glycerophosphate, and 1.25 nM BTK enzyme). Human BTK enzyme Nanosyn-293HEK, wild-type, available from Nanosyn, Santa Clara, CA). Enzyme and compound were pre-incubated for 15 minutes. Additionally, the following was added: (3) substrate buffer: 10 μL of 2.5× substrate buffer (1× Master Buffer, […], and 2.5 μM of the peptide substrate FAM). Each plate was incubated at 25° C. for 3 hours. The reaction was terminated by adding to each well: 45 μL of 1.55× stop buffer (1× Master Buffer and 31 mM EDTA). The final reaction mixture was as follows: 100 mM HEPES, pH7.5; 0.1% BSA; 0.01% Triton X-100; 1 mM DTT; 5 mM MgCl2; 10 μM sodium orthovanadate; 10 μM beta-glycerophosphate; 50 μM ATP; 1% dimethyl sulfoxide (from compound); 1μM fluorescent peptide substrate and 0.5 nM BTK- enzyme. The terminated reactions were analyzed using a 12 channel LABCHIP® 3000 microfluidic detection instrument (available from Caliper Life Sciences, Waltham, MA). […] As substrate and product peptides were separated, two peaks of fluorescence were observed. Change in the relative fluorescence intensity of the substrate and product peaks was the parameter measured, reflecting enzyme activity. In the presence of an active compound, the ratio between product and substrate was altered. The signal of the product decreased, while the signal of the substrate increased. Capillary electrophoregrams (RDA acquisition files) were analyzed using HTS Well Analyzer software (available from Caliper Life Sciences, Waltham, MA).
Activity in each sample was determined as the product to sum ratio (PSR): P/(S+P), where P was the peak height of the product peptide and S was the peak height of the substrate peptide. For each compound, enzyme activity was measured at various concentrations (12 concentrations of compound spaced by 3× dilution intervals). Negative control samples (0% inhibition in the absence of an active compound) and positive control samples (100% inhibition, in the presence of 20 mM EDTA) were assembled in replicates of four and were used to calculate % inhibition values for each active compound at each concentration. Percent inhibition (Pinh) was determined using following equation: Pinh=(PSR0%−PSRinh)/(PSR0%−PSR100%)*100, where PSRinh was the product sum ratio in the presence of inhibitor, PSR0% was the average product sum ratio in the absence of active compound and PSR100% was the average product sum ratio in 100%-inhibition control samples.
The IC50 values of active compounds were determined by 4 parameter sigmoidal dose response model fitting of the inhibition curves (Pinh versus inhibitor concentration) using XLfit® 4 software (IDBS, Boston, MA). The IC50 values are reported in Table 2 in the BTK IC50 (nM) column.

The target in test [2] is His-tagged Cereblon/DDB1 complex (Homo sapiens (Human), UniProt Q96SW2). The test can be described thus: Cereblon Binding Assay (AlphaLISA Human Cereblon Binding Kit, competition). To be noted: 10 μM top dose, biotin-labeled ligand competition; read-out: CRBN IC50. The procedure: Cereblon binding was measured in vitro using an AlphaLISA® Human Cereblon Binding Kit (PerkinElmer, Waltham, MA) according to the manufacturer's protocol (“Alpha” refers to Amplified Luminescent Proximity Homogeneous Assay). In this assay, donor beads and acceptor beads come into proximity through ligand binding to CRBN protein. Excitation of the donor beads provokes the release of singlet oxygen that triggers a cascade of energy transfer reactions to the acceptor beads, resulting in a sharp peak in light emission at 615 nm.
Specifically, nickel chelate acceptor beads (PerkinElmer AL108M) were used to capture a 6XHIS-tagged CRBN protein, and streptavidin-coated donor beads (PerkinElmer 6760002) were used to capture 50 nM biotinylated ligand. Each well included the following: sample or control; HIS-tagged CRBN protein; biotinylated ligand; nickel chelate acceptor beads; and streptavidin donor beads.
Competition Assay: Test compounds in 100% dimethyl sulfoxide were plated onto white, low volume 384 well plates (PerkinElmer Proxiplate 384 plus # 6008289) using an Labcyte Echo acoustic dispenser, in an 11-point dose curve and 3-fold dilution scheme. […] Plates were incubated for 30 minutes at room temperature.
Detection: 10 μL detection reagents were added in low light conditions containing nickel chelate acceptor beads and streptavidin donor beads (Perkin Elmer 6760002), resulting in a final concentration 20 ng/ml. Plates were incubated 1 hour and read on a PerkinElmerTM Envision™ plate reader (680 nm excitation and […] settings). The IC50 of each compound was determined by calculating percent inhibition from no drug and no protein controls, and the Ki of each compound was calculated using the Cheng-Prusoff transformation. From the IC50 values were determined. The IC50 values are reported in Table 2 in the CRBN IC50 (nM) column.
On the technique in general: Bead proximity is the source of the signal in Alpha formats.

The term IC50 denotes the concentration that gives 50% inhibition. As for `Cc1cc(-c2cc(Nc3ccc(N4CCN(CCc5ccc(N6CCC(=O)NC6=O)cc5)C[C@@H]4C)cn3)ncn2)ccc1[C@@H](C)NC(=O)c1nc(C(C)(C)C)no1` [Example 1, 3-tert-butyl-N-[(1R)-1-{4-[6-({5-[(2S)-4-{2-[4-(2,4-dioxo-1,3-diazinan-1-yl)phenyl]ethyl}-2-methylpiperazin-1-yl]pyridin-2-yl}amino)pyrimidin-4-yl]-2-methylphenyl}ethyl]-1,2,4-oxadiazole-5-carboxamide], the values for the half-inhibitory concentration (IC50) in test [1] and in test [2] were 0.0977 nM and 1260 nM, respectively.
On to `Cc1cc(-c2cc(Nc3ccc(N4CCN(CCc5ccc(N6CCC(=O)NC6=O)cc5)C[C@H]4C)cn3)ncn2)ccc1[C@@H](C)NC(=O)c1nc(C(C)(C)C)no1` [Example 2, 3-tert-butyl-N-[(1R)-1-{4-[6-({5-[(2R)-4-{2-[4-(2,4-dioxo-1,3-diazinan-1-yl)phenyl]ethyl}-2-methylpiperazin-1-yl]pyridin-2-yl}amino)pyrimidin-4-yl]-2-methylphenyl}ethyl]-1,2,4-oxadiazole-5-carboxamide], for which the IC50 is 0.128 nM in test [1] and 749 nM in test [2].
Consider `Cc1cc(-c2cc(Nc3ccc(N4CCN(CCc5ccc(N6CCC(=O)NC6=O)cc5)CC4)cn3)ncn2)ccc1[C@@H](C)NC(=O)c1nc(C(C)(C)C)no1` [Example 3, 3-tert-butyl-N-{(1R)-1-[4-(6-{[5-(4-{2-[4-(2,4-dioxo-1,3-diazinan-1-yl)phenyl]ethyl}piperazin-1-yl)pyridin-2-yl]amino}pyrimidin-4-yl)-2-methylphenyl]ethyl}-1,2,4-oxadiazole-5-carboxamide], for which the IC50 in test [1] amounted to 0.0339 nM; in test [2], 9570 nM.
As to `Cc1cc(-c2cc(Nc3ccc(N4CCN(CCc5ccc(N6CCC(=O)NC6=O)c(F)c5)C[C@@H]4C)cn3)ncn2)ccc1[C@@H](C)NC(=O)c1nc(C(C)(C)C)no1` [Example 4, 3-tert-butyl-N-[(1R)-1-{4-[6-({5-[(2S)-4-{2-[4-(2,4-dioxo-1,3-diazinan-1-yl)-3-fluorophenyl]ethyl}-2-methylpiperazin-1-yl]pyridin-2-yl}amino)pyrimidin-4-yl]-2-methylphenyl}ethyl]-1,2,4-oxadiazole-5-carboxamide], the IC50 in test [1] is 0.141 nM; in test [2], at least 10000 nM.
With `Cc1cc(-c2cc(Nc3ccc(N4CCN(CCc5ccc(N6CCC(=O)NC6=O)c(F)c5)C[C@H]4C)cn3)ncn2)ccc1[C@@H](C)NC(=O)c1nc(C(C)(C)C)no1` [Example 5, 3-tert-butyl-N-[(1R)-1-{4-[6-({5-[(2R)-4-{2-[4-(2,4-dioxo-1,3-diazinan-1-yl)-3-fluorophenyl]ethyl}-2-methylpiperazin-1-yl]pyridin-2-yl}amino)pyrimidin-4-yl]-2-methylphenyl}ethyl]-1,2,4-oxadiazole-5-carboxamide], the results for the IC50 in test [1] and in test [2] were 0.113 nM and 648 nM, respectively.
Turning to `CC[C@H]1CN(CCc2ccc(N3CCC(=O)NC3=O)cc2)CCN1c1ccc(Nc2cc(-c3ccc([C@@H](C)NC(=O)c4nc(C(C)(C)C)no4)c(C)c3)ncn2)nc1` [Example 6, 3-tert-butyl-N-[(1R)-1-{4-[6-({5-[(2S)-4-{2-[4-(2,4-dioxo-1,3-diazinan-1-yl)phenyl]ethyl}-2-ethylpiperazin-1-yl]pyridin-2-yl}amino)pyrimidin-4-yl]-2-methylphenyl}ethyl]-1,2,4-oxadiazole-5-carboxamide], the IC50 in test [1] was 0.0403 nM; in test [2], 378 nM.
Consider `CC[C@H]1CN(CCc2ccc(N3CCC(=O)NC3=O)c(F)c2)CCN1c1ccc(Nc2cc(-c3ccc([C@@H](C)NC(=O)c4nc(C(C)(C)C)no4)c(C)c3)ncn2)nc1` [Example 7, 3-tert-butyl-N-[(1R)-1-{4-[6-({5-[(2S)-4-{2-[4-(2,4-dioxo-1,3-diazinan-1-yl)-3-fluorophenyl]ethyl}-2-ethylpiperazin-1-yl]pyridin-2-yl}amino)pyrimidin-4-yl]-2-methylphenyl}ethyl]-1,2,4-oxadiazole-5-carboxamide], for which the figures for the IC50 in test [1] and in test [2] were 0.0979 nM and 609 nM, respectively.
On to `CC[C@@H]1CN(CCc2ccc(N3CCC(=O)NC3=O)cc2)CCN1c1ccc(Nc2cc(-c3ccc([C@@H](C)NC(=O)c4nc(C(C)(C)C)no4)c(C)c3)ncn2)nc1` [Example 8, 3-tert-butyl-N-[(1R)-1-{4-[6-({5-[(2R)-4-{2-[4-(2,4-dioxo-1,3-diazinan-1-yl)phenyl]ethyl}-2-ethylpiperazin-1-yl]pyridin-2-yl}amino)pyrimidin-4-yl]-2-methylphenyl}ethyl]-1,2,4-oxadiazole-5-carboxamide], for which the half-maximal inhibitory concentration (IC50) turned out to be 0.0804 nM in test [1] and 3380 nM in test [2].
With `Cc1cc(-c2cc(Nc3ccc(N4CCN(CCc5ccc(N6CCC(=O)NC6=O)cc5)CC4(C)C)cn3)ncn2)ccc1[C@@H](C)NC(=O)c1nc(C(C)(C)C)no1` [Example 9, 3-tert-butyl-N-{(1R)-1-[4-(6-{[5-(4-{2-[4-(2,4-dioxo-1,3-diazinan-1-yl)phenyl]ethyl}-2,2-dimethylpiperazin-1-yl)pyridin-2-yl]amino}pyrimidin-4-yl)-2-methylphenyl]ethyl}-1,2,4-oxadiazole-5-carboxamide], the 50% inhibitory concentration (IC50) was 0.0988 nM in test [1] and 658 nM in test [2].
Consider `Cc1cc(-c2cc(Nc3ccc(N4CCN(CCc5ccc(N6CCC(=O)NC6=O)cc5)CC4)cn3)ncn2)c(F)cc1[C@@H](C)NC(=O)c1nc(C(C)(C)C)no1` [Example 12, 3-tert-butyl-N-{(1R)-1-[4-(6-{[5-(4-{2-[4-(2,4-dioxo-1,3-diazinan-1-yl)phenyl]ethyl}piperazin-1-yl)pyridin-2-yl]amino}pyrimidin-4-yl)-5-fluoro-2-methylphenyl]ethyl}-1,2,4-oxadiazole-5-carboxamide], for which the IC50 in test [1] was determined as 0.0363 nM; in test [2] it was 2010 nM.
The corresponding values for `Cc1cc(-c2cc(Nc3ccc(N4CCN(CCc5ccc(N6CCC(=O)NC6=O)cc5)C[C@@H]4C(C)C)cn3)ncn2)ccc1[C@@H](C)NC(=O)c1nc(C(C)(C)C)no1` [Example 13, 3-tert-butyl-N-[(1R)-1-{4-[6-({5-[(2S)-4-{2-[4-(2,4-dioxo-1,3-diazinan-1-yl)phenyl]ethyl}-2-(propan-2-yl)piperazin-1-yl]pyridin-2-yl}amino)pyrimidin-4-yl]-2-methylphenyl}ethyl]-1,2,4-oxadiazole-5-carboxamide] are 0.14 nM and at least 10000 nM.
